Here are results for three compounds from patent US20110112053A1, “PHARMACOLOGICAL TARGETING OF VASCULAR MALFORMATIONS” (University of Utah Research Foundation, priority 2008, published 2011).

Data set [1] has as its target geranylgeranyltransferase I (GGTase I) (Homo sapiens, UniProt P53609). Particulars: cited from earlier work.
Data set [2] concerns CCM2-depleted HMVECs. The experiment in a line: Phalloidin staining for actin stress fibers. Type of data set: cell-based, human. The method, then: Immunofluorescent Cell Staining. Glass chamber slides were coated with human fibronectin (Biomedical Technologies, Inc.), and transfected cells were seeded at 50,000 cells per well. For the RhoA and ROCK experiment, cells were treated four days after seeding with 40 μg/mL of cell-permeable C3 transferase (Cytoskeleton, Inc.) or 20 μM Y-27632 for 4 hours. For the simvastatin experiment, cells were treated three days after seeding with 40 μM simvastatin (Calbiochem) or equivalent amounts of ethanol in growth media for 24 hours. Cells were fixed in 4% formaldehyde and incubated with an antibody against β-catenin (BD Biosciences). Fluorescent secondary antibody (Molecular Probes) was used to visualize β-catenin staining Actin cytoskeleton was visualized using fluorescently-conjugated phalloidin (Molecular Probes). Images were obtained with an Olympus FV300 confocal microscope.

The next data set has as its system JNK. Briefly: Immunoblot for phosphorylated and total JNK. Particulars: 10 μM Y-27632 for 30 min prior to cell lysis. Type of data set: cell-based, human. The method, then: MAPK Profiling. siRNA transfected cells were lysed in RIPA buffer (50 mM Tris pH 7.4, 150 mM NaCl, 1% NP-40) supplemented with protease and phosphatase inhibitors. Lysates were then analyzed by western blotting. Antibodies to phospho-JNK and total JNK were from Santa Cruz Biotechnology. Antibodies to phospho-ERK, phospho-p38, phospho-MKK4, phospho-MKK7, total ERK, total p38, total MKK4, and total MKK7 were from Cell Signaling Technology. The effect of ROCK inhibitor on JNK was tested by treating cells with 10 μM Y-27632 for 30 min prior to cell lysis. The effect of simvastatin on JNK was determined by treating cells with 10 μM simvastatin for 24 h prior to cell lysis.
For orientation: A western blot detects proteins with antibodies after separation by electrophoresis.

A further data set relates to mice. Particulars: mouse, in vivo.
Data set [3] deals with CCM2-depleted HMVECs. The experiment in a line: Transendothelial electrical resistance (barrier function). Type of data set: cell-based, human. Particulars: C3 transferase 1 μg ml^−1. The method, then:
Transendothelial Resistance. An electrode culture array (Applied Biophysics) was coated with human fibronectin and transfected cells were seeded at 50,000 cells per well. Three days after seeding, cells were serum-starved in endothelial basal medium-2 with 0.2% BSA overnight. Transendothelial resistance was measured with an electric cell-substrate impedance sensing system (Applied Biophysics). Cell-permeable C3 transferase (1 μg ml^−1) was added to inhibit RHOA. For basal resistance, 40 wells each were measured for Rho inhibition experiments, six control wells each and ten C3 transferase wells each were measured.

Turning to `CC(C)C[C@H](NC(=O)c1ccc(NCc2c[nH]cn2)cc1-c1cccc2ccccc12)C(=O)O.O=C(O)C(F)(F)F` [GGTI-2133, N-[[4-(Imidazol-4-yl)methylamino]-2-(1-naphthyl)benzoyl]leucine trifluoroacetate salt], in data set [1], the “selectivity for GGTase I over farnesyltransferase” value was 140 fold.
`C[C@@H](N)[C@H]1CC[C@H](C(=O)Nc2ccncc2)CC1` [Y-27632, (R)-(+)-trans-N-(4-Pyridyl)-4-(1-aminoethyl)-cyclohexanecarboxamide]: in the data set on CCM2-depleted HMVECs [2] (20 μM Y-27632, 4 hours), the “actin stress fiber response” value is given as “blocked the stress fiber response”. In the data set with JNK, the “activation (phosphorylation) of JNK” value is recorded as “decreased the activation of JNK”. Further, in the data set with mice, the tolerability in mice entry is “do not tolerate”.
In the case of C3 transferase, the “actin stress fiber response” value with CCM2-depleted HMVECs [2] (40 μg/mL cell-permeable C3 transferase, 4 hours) is reported as “blocked the stress fiber response”. In addition, the “barrier function (transendothelial resistance)” value in the data set with CCM2-depleted HMVECs [3] is on record as “significantly rescue barrier function”.
